Reference: PMC6857582, “Characterization of aminopeptidase encoding gene anp-1 and its association with development in Caenorhabditis elegans” (PeerJ, 2019)

What was measured:
[1] = target: T1, rANP-1 (AlaNyl aminopeptidase 1) (Caenorhabditis elegans, UniProt Q22317); test: p-nitroanilide release, absorbance at […] nm; format: biochemical; conditions: refolded fragment
T1 construct: gene anp-1
T1 sequence (Q22317 93-559): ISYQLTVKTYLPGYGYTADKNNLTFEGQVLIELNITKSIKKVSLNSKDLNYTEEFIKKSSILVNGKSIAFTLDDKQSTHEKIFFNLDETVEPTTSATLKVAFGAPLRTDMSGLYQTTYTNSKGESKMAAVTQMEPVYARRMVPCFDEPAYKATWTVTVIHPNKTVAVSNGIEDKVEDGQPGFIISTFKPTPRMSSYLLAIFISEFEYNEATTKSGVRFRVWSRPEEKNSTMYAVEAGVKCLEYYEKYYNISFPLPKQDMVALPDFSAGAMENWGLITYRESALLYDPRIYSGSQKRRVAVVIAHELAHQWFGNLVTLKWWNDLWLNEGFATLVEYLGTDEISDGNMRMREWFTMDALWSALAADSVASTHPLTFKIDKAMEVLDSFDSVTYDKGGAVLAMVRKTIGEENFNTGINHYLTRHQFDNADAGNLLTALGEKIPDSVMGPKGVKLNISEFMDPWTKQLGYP

[2] = target: T1, rANP-1 (AlaNyl aminopeptidase 1); test: L-Leu-pNA hydrolysis, absorbance at […] nm; format: biochemical; conditions: inhibitor concentration not given; pre-incubation with inhibitor; substrate L-Leu-pNA; refolded fragment

| % reduction of activity [2] | SMILES | p-nitroanilide release, absorbance at 405 nm [1] |
| --- | --- | --- |
| – | CC(C)C[C@H](N)C(=O)Nc1ccc([N+](=O)[O-])cc1 [L-leucine-p-nitroanilide] | Aminopeptidase activity of rANP-1 protein was measured using L-Leu-pNA as substrate |
| ~ 55% | CC(C)C[C@@H](N)[C@H](O)C(=O)N[C@H](C(=O)N[C@H](C(=O)N[C@@H](CC(=O)O)C(=O)O)C(C)C)C(C)C [amastatin] | – |
| ~ 46% | CC(C)C[C@H](NC(=O)[C@@H](O)[C@H](N)Cc1ccccc1)C(=O)O [bestatin] | – |
